From the supplement of paper PMC10307832

What was measured:
Assay in all cases: relative viability (nuclei count vs DMSO), 5 days (fraction); higher = more cells survive
[1] = compound: CC(C)C[C@H](NC(=O)[C@H](CCc1ccccc1)NC(=O)CN1CCOCC1)C(=O)N[C@@H](Cc1ccccc1)C(=O)N[C@@H](CC(C)C)C(=O)[C@@]1(C)CO1 [Carfilzomib] + COc1cccc2cc(-c3nc([C@H]4CC[C@H](C(=O)O)CC4)n4ncnc(N)c34)[nH]c12 [OSI-027] (partner 0.5 µM)
How it was run: (§1)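 Medians of duplicate plates are given as relative viability. That measure is the nuclei count in treated wells divided by the count in vehicle wells. Counts were taken on 4× images of lung cancer cell lines in 1536-well plates, 5 days after pin-tool dosing the day after seeding with one drug alone or a fixed anchor-drug dose plus five library-drug doses (not always all listed) in √10 steps.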

[2] = compound: O=C(c1cc(Cc2n[nH]c(=O)c3ccccc23)ccc1F)N1CCN(C(=O)C2CC2)CC1 [Olaparib] + CC(=O)c1c(C)c2cnc(Nc3ccc(N4CCNCC4)cn3)nc2n(C2CCCC2)c1=O [Palbociclib] (partner 0.5 µM)
How it was run: as §1

[3] = compound: O=C(c1cc(Cc2n[nH]c(=O)c3ccccc23)ccc1F)N1CCN(C(=O)C2CC2)CC1 [Olaparib] + CC(C)C[C@H](NC(=O)[C@H](Cc1ccccc1)NC(=O)c1cnccn1)B(O)O [Bortezomib] (partner 0.002 µM)
How it was run: as §1

[4] = compound: O=C(c1cc(Cc2n[nH]c(=O)c3ccccc23)ccc1F)N1CCN(C(=O)C2CC2)CC1 [Olaparib] + Cc1cc(Nc2cc(N3CCN(C)CC3)nc(Sc3ccc(NC(=O)C4CC4)cc3)n2)n[nH]1 [Tozasertib] (partner 0.1 µM)
How it was run: as §1

Cell Line | relative viability ([1]; first compound 0.001 µM) | relative viability ([1]; first compound 0.003162 µM) | relative viability ([1]; first compound 0.01 µM) | relative viability ([1]; first compound 0.03162 µM) | relative viability ([1]; first compound 0.1 µM) | relative viability ([2]; first compound 0.08 µM) | relative viability ([2]; first compound 2.53 µM) | relative viability ([2]; first compound 8 µM) | relative viability ([3]; first compound 0.08 µM) | relative viability ([3]; first compound 0.253 µM) | relative viability ([3]; first compound 2.53 µM) | relative viability ([3]; first compound 8 µM) | relative viability ([4]; first compound 0.08 µM) | relative viability ([4]; first compound 0.253 µM) | relative viability ([4]; first compound 2.53 µM) | relative viability ([4]; first compound 8 µM) | relative viability ([2]; first compound 0.253 µM)
PC-3 [JPC-3] | 0.801 | 0.775 | 0.813 | 0.755 | 0.352 | 0.531 | 0.52 | 0.534 | 0.991 | 0.692 | 0.852 | 0.846 | 0.913 | 0.855 | 0.946 | 0.843 | –
NCI-H1734 | 0.62 | 0.683 | 0.585 | 0.222 | 0.138 | 0.337 | 0.29 | 0.304 | 1.06 | 0.835 | 0.91 | 0.614 | 0.25 | 0.249 | 0.251 | 0.251 | 0.327
HOP-62 | 0.892 | 0.899 | 0.575 | 0.317 | 0.083 | 0.469 | 0.361 | 0.319 | 1.21 | 0.55 | 0.556 | 0.211 | 0.485 | 0.317 | 0.374 | 0.287 | 0.454
HARA | 0.537 | 0.564 | 0.675 | 0.0444 | 0.0712 | 0.216 | 0.271 | 0.276 | 1.25 | 1.04 | 1.06 | 0.769 | 0.14 | 0.0884 | 0.0969 | 0.0782 | 0.268
NCI-H2023 | 0.386 | 0.435 | 0.467 | 0.147 | 0.0792 | 0.413 | 0.397 | 0.292 | 1.13 | 0.884 | 0.931 | 0.675 | 0.357 | 0.298 | 0.32 | 0.238 | 0.34
NCI-H1993 | 0.573 | 0.569 | 0.576 | 0.443 | 0.459 | 0.49 | 0.83 | 0.735 | 1.06 | 1.16 | 1.06 | 1.18 | 0.546 | 0.537 | 0.557 | 0.521 | 0.653
NCI-H460 | 0.647 | 0.678 | 0.697 | 0.287 | 0.022 | 0.0979 | 0.0723 | 0.0812 | 1.14 | 1.02 | 0.891 | 0.277 | 0.485 | 0.415 | 0.356 | 0.184 | 0.0831
NCI-H441 | 0.649 | 0.588 | 0.295 | 0.153 | 0.16 | 0.268 | 0.234 | 0.243 | – | 0.175 | 0.489 | 0.382 | 0.602 | 0.561 | 0.639 | 0.541 | 0.257
COR-L 105 | 0.805 | 0.82 | 0.699 | 0.271 | 0.191 | 0.401 | 0.404 | 0.398 | 0.936 | 0.85 | 0.464 | 0.426 | 0.368 | 0.351 | 0.319 | 0.275 | 0.409
NCI-H322M | 0.592 | 0.624 | 0.606 | 0.462 | 0.332 | 0.468 | 0.515 | 0.462 | 1.27 | 1.19 | 1.2 | 1.24 | 0.484 | 0.471 | 0.473 | 0.434 | 0.408
HCC-827 | 0.796 | 0.829 | 0.872 | 0.746 | 0.511 | 0.534 | 0.474 | 0.387 | 1.01 | 0.943 | 1.03 | 0.95 | 0.414 | 0.376 | 0.399 | 0.378 | 0.494
NCI-H1651 | 0.733 | 0.743 | 0.588 | 0.127 | 0.0922 | 0.547 | 0.493 | 0.384 | 0.892 | 0.901 | 0.781 | 0.451 | 0.677 | 0.638 | 0.439 | 0.257 | 0.494
EKVX | 0.689 | 0.754 | 0.834 | 0.601 | 0.315 | 0.38 | 0.371 | 0.41 | 1.42 | 0.987 | 0.995 | 0.994 | 0.441 | 0.352 | 0.388 | 0.445 | 0.364
201T | 0.749 | 0.795 | 0.884 | 0.437 | 0.31 | 0.392 | 0.388 | 0.337 | 1.19 | 1.03 | 1.11 | 1.07 | 1.05 | 0.91 | 0.919 | 0.879 | 0.323
NCI-H2228 | 0.506 | 0.736 | 0.397 | 0.0668 | 0.0974 | 0.792 | 0.731 | 0.452 | 1.02 | 0.821 | 1.02 | 0.661 | 0.324 | 0.207 | 0.201 | 0.136 | 0.667
NCI-H2009 | 0.758 | 0.778 | 0.631 | 0.111 | 0.0867 | 0.233 | 0.194 | 0.17 | 1.06 | 0.953 | 0.914 | 0.638 | 0.81 | 0.678 | 0.761 | 0.648 | 0.205

Cell Line | relative viability ([1]; first compound 0.001 µM) | relative viability ([1]; first compound 0.003162 µM) | relative viability ([1]; first compound 0.01 µM) | relative viability ([1]; first compound 0.03162 µM) | relative viability ([1]; first compound 0.1 µM) | relative viability ([2]; first compound 0.08 µM) | relative viability ([2]; first compound 2.53 µM) | relative viability ([2]; first compound 8 µM) | relative viability ([3]; first compound 0.08 µM) | relative viability ([3]; first compound 0.253 µM) | relative viability ([3]; first compound 2.53 µM) | relative viability ([3]; first compound 8 µM) | relative viability ([4]; first compound 0.08 µM) | relative viability ([4]; first compound 0.253 µM) | relative viability ([4]; first compound 2.53 µM) | relative viability ([4]; first compound 8 µM) | relative viability ([2]; first compound 0.253 µM)
NCI-H1975 | – | 0.715 | 0.503 | 0.0875 | 0.106 | 0.593 | 0.569 | 0.502 | 0.424 | 0.364 | 0.403 | 0.319 | 0.821 | 0.715 | 0.85 | 0.699 | 0.607
NCI-H2347 | 0.415 | – | 0.366 | 0.26 | 0.217 | 0.381 | 0.393 | 0.409 | 1.28 | 0.715 | 0.974 | 0.676 | 0.548 | 0.48 | 0.483 | 0.54 | 0.431
PC-14 | 0.904 | 0.962 | 0.603 | 0.0409 | 0.0529 | 0.614 | 0.366 | 0.212 | 1.04 | 0.892 | 0.78 | 0.682 | 0.602 | 0.557 | 0.536 | 0.419 | 0.401
COR-L23 | 0.455 | 0.908 | 0.762 | 0.144 | 0.0646 | 0.314 | 0.223 | 0.14 | 1.06 | 0.862 | 0.92 | 0.474 | 0.22 | 0.192 | 0.176 | 0.12 | 0.241
ABC-1 | 0.431 | 0.289 | 0.276 | 0.158 | 0.171 | 0.814 | 0.476 | 0.862 | 0.308 | 0.332 | 0.323 | 0.33 | 0.22 | 0.149 | 0.198 | 0.182 | –
NCI-H520 | 0.19 | 0.259 | 0.22 | 0.221 | 0.191 | 0.239 | 0.179 | 0.152 | 0.788 | 0.336 | 0.671 | 0.209 | 0.39 | 0.389 | 0.467 | 0.411 | 0.207
ChaGo-K-1 | 0.414 | 0.576 | 0.659 | 0.554 | 0.176 | 1.03 | 0.908 | 0.664 | 1.27 | 0.96 | 1.02 | 0.845 | 0.286 | 0.198 | 0.232 | 0.197 | 0.908
NCI-H838 | 0.367 | 0.45 | 0.431 | 0.388 | 0.131 | 0.269 | 0.198 | 0.247 | 0.956 | 0.738 | 0.771 | 0.9 | 0.277 | 0.239 | 0.265 | 0.269 | 0.196
NCI-H2126 | 0.721 | 0.707 | 0.76 | 0.726 | 0.331 | 0.374 | 0.343 | 0.35 | 1.22 | 0.994 | 1.07 | 1.08 | 0.915 | 0.794 | 0.869 | 0.83 | 0.364
HCC-366 | 0.914 | 1.02 | 1.12 | 0.839 | 0.035 | 0.39 | 0.26 | 0.168 | 1.06 | 0.959 | 0.913 | 0.384 | 0.11 | 0.118 | 0.0926 | 0.0619 | 0.263
NCI-H2085 | 0.59 | 0.799 | 0.64 | 0.264 | 0.27 | 0.559 | 0.477 | 0.459 | 1.25 | 0.92 | 0.981 | 0.808 | 0.943 | 0.756 | 0.847 | 0.753 | 0.453
LU99A | 0.293 | 0.309 | 0.317 | 0.275 | 0.192 | 0.45 | 0.31 | 0.323 | 1.13 | 0.96 | 0.726 | 0.626 | 0.299 | 0.292 | 0.261 | 0.22 | 0.392
NCI-H3122 | 1.01 | 1.05 | 1.07 | 0.872 | 0.154 | 0.206 | 0.194 | 0.188 | 1.01 | 0.985 | 0.993 | 0.947 | 0.466 | 0.376 | 0.457 | 0.346 | 0.193
LCLC-97TM1 | 0.459 | 0.512 | 0.533 | 0.298 | 0.246 | 0.24 | 0.206 | 0.166 | 0.729 | 0.475 | 1.03 | 0.276 | 0.22 | 0.211 | 0.262 | 0.238 | 0.226
LXF-289 | 0.818 | 0.9 | 0.749 | 0.163 | 0.0509 | 0.635 | 0.684 | 0.689 | 1.09 | 0.941 | 1.03 | 0.992 | 0.232 | 0.146 | 0.159 | 0.156 | 0.6
